Results as given in ChEMBL document CHEMBL3994622, “Design and synthesis of new RAF kinase-inhibiting antiproliferative quinoline derivatives. Part 2: Diarylurea derivatives” (Eur J Med Chem, 2017).

Each molecule was assayed on HCT-116 (assay: Growth inhibition of human HCT116 cells assessed as cell growth at 10 uM incubated for 48 hrs by sulforhodamine B assay relative to control). Conditions: HCT-116, 48 h, read-out: Activity.
Assay type: functional

Compound	growth at 10 µM [%]
COc1cc2cc(Oc3ccc(NC(=O)Nc4cc(C(F)(F)F)cc(C(F)(F)F)c4)cc3)c(C)nc2cc1OC	3.73

The molecules below were run on NCI-H522 (assay: Growth inhibition of human NCI-H522 cells assessed as cell growth at 10 uM incubated for 48 hrs by sulforhodamine B assay relative to control). Conditions: NCI-H522, 48 h, read-out: Activity.
Assay type: functional

Compound	growth at 10 µM [%]
COc1cc2cc(Oc3ccc(NC(=O)Nc4cc(C(F)(F)F)cc(C(F)(F)F)c4)cc3)c(C)nc2cc1OC	-33.4

What follows are molecules tested on DU-145 (assay: Growth inhibition of human DU145 cells assessed as cell growth at 10 uM incubated for 48 hrs by sulforhodamine B assay relative to control). Conditions: DU-145, 48 h, read-out: Activity.
Assay type: functional

Compound	growth at 10 µM [%]
COc1cc2cc(Oc3ccc(NC(=O)Nc4cc(C(F)(F)F)cc(C(F)(F)F)c4)cc3)c(C)nc2cc1OC	19.5

The molecules below were run on HCC 2998 (assay: Growth inhibition of human HCC2998 cells assessed as cell growth at 10 uM incubated for 48 hrs by sulforhodamine B assay relative to control). Conditions: HCC 2998, 48 h, read-out: Activity.
Assay type: functional

Compound	growth at 10 µM [%]
COc1cc2cc(Oc3ccc(NC(=O)Nc4cc(C(F)(F)F)cc(C(F)(F)F)c4)cc3)c(C)nc2cc1OC	21.3

The molecules below were run on IGROV-1 (assay: Growth inhibition of human IGROV1 cells incubated for 48 hrs by sulforhodamine B assay). Conditions: IGROV-1, 48 h.
Assay type: functional

Compound	GI50 [µM]	TGI [µM]
COc1cc2cc(Oc3ccc(NC(=O)Nc4cc(C(F)(F)F)cc(C(F)(F)F)c4)cc3)c(C)nc2cc1OC	0.51	2.3

Same assay, conditions: IGROV-1, 48 h, read-out: LC50 (the source's name)

Compound	CC50 [µM]
COc1cc2cc(Oc3ccc(NC(=O)Nc4cc(C(F)(F)F)cc(C(F)(F)F)c4)cc3)c(C)nc2cc1OC	8.68

Each molecule was assayed on RPMI-8226 (assay: Growth inhibition of human RPMI8226 cells assessed as cell growth at 10 uM incubated for 48 hrs by sulforhodamine B assay relative to control). Conditions: RPMI-8226, 48 h, read-out: Activity.
Assay type: functional

Compound	growth at 10 µM [%]
COc1cc2cc(Oc3ccc(NC(=O)Nc4cc(C(F)(F)F)cc(C(F)(F)F)c4)cc3)c(C)nc2cc1OC	1.15

What follows are molecules tested on CCRF-CEM (assay: Growth inhibition of human CCRF-CEM cells assessed as cell growth at 10 uM incubated for 48 hrs by sulforhodamine B assay relative to control). Conditions: read-out: Activity.
Assay type: functional

Compound	growth at 10 µM [%]
COc1cc2cc(Oc3ccc(NC(=O)Nc4cc(C(F)(F)F)cc(C(F)(F)F)c4)cc3)c(C)nc2cc1OC	0.19

These molecules were tested on SNB-75 (assay: Growth inhibition of human SNB75 cells assessed as cell growth at 10 uM incubated for 48 hrs by sulforhodamine B assay relative to control). Conditions: SNB-75, 48 h, read-out: Activity.
Assay type: functional

Compound	growth at 10 µM [%]
COc1cc2cc(Oc3ccc(NC(=O)Nc4cc(C(F)(F)F)cc(C(F)(F)F)c4)cc3)c(C)nc2cc1OC	9.73

The molecules below were run on EKVX (assay: Growth inhibition of human EKVX cells assessed as cell growth at 10 uM incubated for 48 hrs by sulforhodamine B assay relative to control). Conditions: read-out: Activity.
Assay type: functional

Compound	growth at 10 µM [%]
COc1cc2cc(Oc3ccc(NC(=O)Nc4cc(C(F)(F)F)cc(C(F)(F)F)c4)cc3)c(C)nc2cc1OC	2.88

Each molecule was assayed on PC-3 (assay: Growth inhibition of human PC3 cells assessed as cell growth at 10 uM incubated for 48 hrs by sulforhodamine B assay relative to control). Conditions: PC-3, 48 h, read-out: Activity.
Assay type: functional

Compound	growth at 10 µM [%]
COc1cc2cc(Oc3ccc(NC(=O)Nc4cc(C(F)(F)F)cc(C(F)(F)F)c4)cc3)c(C)nc2cc1OC	6.82

What follows are molecules tested on MDA-MB-231 (assay: Growth inhibition of human MDA-MB-231 cells assessed as cell growth at 10 uM incubated for 48 hrs by sulforhodamine B assay relative to control). Conditions: MDA-MB-231, 48 h, read-out: Activity.
Assay type: functional

Compound	growth at 10 µM [%]
COc1cc2cc(Oc3ccc(NC(=O)Nc4cc(C(F)(F)F)cc(C(F)(F)F)c4)cc3)c(C)nc2cc1OC	-36.1

The molecules below were run on SK-MEL-28 (assay: Growth inhibition of human SK-MEL-28 cells assessed as cell growth at 10 uM incubated for 48 hrs by sulforhodamine B assay relative to control). Conditions: SK-MEL-28, 48 h, read-out: Activity.
Assay type: functional

Compound	growth at 10 µM [%]
COc1cc2cc(Oc3ccc(NC(=O)Nc4cc(C(F)(F)F)cc(C(F)(F)F)c4)cc3)c(C)nc2cc1OC	7.66

Each molecule was assayed on HOP-62 (assay: Growth inhibition of human HOP62 cells assessed as cell growth at 10 uM incubated for 48 hrs by sulforhodamine B assay relative to control). Conditions: HOP-62, 48 h, read-out: Activity.
Assay type: functional

Compound	growth at 10 µM [%]
COc1cc2cc(Oc3ccc(NC(=O)Nc4cc(C(F)(F)F)cc(C(F)(F)F)c4)cc3)c(C)nc2cc1OC	-54.1

Each molecule was assayed on Hs-578T (assay: Growth inhibition of human Hs 578T cells assessed as cell growth at 10 uM incubated for 48 hrs by sulforhodamine B assay relative to control). Conditions: read-out: Activity.
Assay type: functional

Compound	growth at 10 µM [%]
COc1cc2cc(Oc3ccc(NC(=O)Nc4cc(C(F)(F)F)cc(C(F)(F)F)c4)cc3)c(C)nc2cc1OC	-10.7

Each molecule was assayed on BT-549 (assay: Growth inhibition of human BT549 cells assessed as cell growth at 10 uM incubated for 48 hrs by sulforhodamine B assay relative to control). Conditions: BT-549, 48 h, read-out: Activity.
Assay type: functional

Compound	growth at 10 µM [%]
COc1cc2cc(Oc3ccc(NC(=O)Nc4cc(C(F)(F)F)cc(C(F)(F)F)c4)cc3)c(C)nc2cc1OC	1.44

What follows are molecules tested on UACC-257 (assay: Growth inhibition of human UACC257 cells assessed as cell growth at 10 uM incubated for 48 hrs by sulforhodamine B assay relative to control). Conditions: UACC-257, 48 h, read-out: Activity.
Assay type: functional

Compound	growth at 10 µM [%]
COc1cc2cc(Oc3ccc(NC(=O)Nc4cc(C(F)(F)F)cc(C(F)(F)F)c4)cc3)c(C)nc2cc1OC	-4.68

What follows are molecules tested on OVCAR-8 (assay: Growth inhibition of human OVCAR8 cells assessed as cell growth at 10 uM incubated for 48 hrs by sulforhodamine B assay relative to control). Conditions: OVCAR-8, 48 h, read-out: Activity.
Assay type: functional

Compound	growth at 10 µM [%]
COc1cc2cc(Oc3ccc(NC(=O)Nc4cc(C(F)(F)F)cc(C(F)(F)F)c4)cc3)c(C)nc2cc1OC	14.2

These molecules were tested on DU-145 (assay: Growth inhibition of human DU145 cells incubated for 48 hrs by sulforhodamine B assay). Conditions: DU-145, 48 h.
Assay type: functional

Compound	GI50 [µM]	TGI [µM]
COc1cc2cc(Oc3ccc(NC(=O)Nc4cc(C(F)(F)F)cc(C(F)(F)F)c4)cc3)c(C)nc2cc1OC	2.38	9.36

Same assay, conditions: DU-145, 48 h, read-out: LC50 (the source's name)

Compound	CC50 [µM]
COc1cc2cc(Oc3ccc(NC(=O)Nc4cc(C(F)(F)F)cc(C(F)(F)F)c4)cc3)c(C)nc2cc1OC	8.06

These molecules were tested on RXF 393 (assay: Growth inhibition of human RXF393 cells assessed as cell growth at 10 uM incubated for 48 hrs by sulforhodamine B assay relative to control). Conditions: RXF 393, 48 h, read-out: Activity.
Assay type: functional

Compound	growth at 10 µM [%]
COc1cc2cc(Oc3ccc(NC(=O)Nc4cc(C(F)(F)F)cc(C(F)(F)F)c4)cc3)c(C)nc2cc1OC	-24.5
